Assay results: patent publication US20260356856A1, “KRAS G12S AND G12C INHIBITORS” (MIRATI THERAPEUTICS, INC., priority 2023, published 2026)

Legend:
[1] = target: T1, KRas-mediated phosphorylation of ERK in H358 cells (Homo sapiens, UniProt P01116, G12C); experiment: Inhibition of KRas-mediated phosphorylation of ERK (HTRF), H358 cells; type: cell-based; settings: HTRF pERK, 3 h incubation
T1 construct: pERK HTRF read-out

KRas G12C = target: T2, KRas G12C (Homo sapiens, UniProt P01116, G12C); experiment: KRas binding assay, TR-FRET displacement of Cy5 labelled tracer; settings: 60-minute incubation at room temperature, 1% DMSO, pH 7.5
T2 construct: Biotinylated KRas (corresponding to amino acids 1-169, produced at Accelegan Inc.); biotin (biotinylated); purchased Accelegan Inc
T2 sequence (P01116 1-169 isoform P01116-2 G12C): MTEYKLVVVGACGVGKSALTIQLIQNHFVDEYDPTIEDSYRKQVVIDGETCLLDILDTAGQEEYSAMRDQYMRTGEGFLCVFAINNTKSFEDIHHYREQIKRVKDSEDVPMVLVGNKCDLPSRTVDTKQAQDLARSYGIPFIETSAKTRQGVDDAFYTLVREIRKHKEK
Method in brief: (§1)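 Biotinylated KRas (residues 1-169) was incubated with tracer, terbium-streptavidin and compound at 1% DMSO final in 50 mM HEPES pH 7.5 containing 5 mM MgCl2, 0.005% Tween-20 and 1 mM DTT. The plate was read after 60 min at room temperature, and percent-of-control data were fit to a 4-parameter IC50 equation.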

KRas WT = target: T3, KRas WT (Homo sapiens, UniProt P01116); experiment: as above; settings: 60-minute incubation at room temperature, 1% DMSO, pH 7.5
T3 construct: Biotinylated KRas (corresponding to amino acids 1-169, produced at Accelegan Inc.); biotin (biotinylated); purchased Accelegan Inc
T3 sequence (P01116 1-169 isoform P01116-2): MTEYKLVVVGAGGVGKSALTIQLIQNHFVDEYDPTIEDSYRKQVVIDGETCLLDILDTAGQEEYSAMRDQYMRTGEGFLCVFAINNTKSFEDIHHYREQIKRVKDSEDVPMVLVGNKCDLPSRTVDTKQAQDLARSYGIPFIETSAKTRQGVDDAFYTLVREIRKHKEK
Method in brief: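 Tb-streptavidin captured biotinylated KRas (1-169) in HEPES 50 mM, DTT 1 mM, MgCl2 5 mM, Tween-20 0.005% (pH 7.5), alongside tracer and compound at 1% final DMSO. One hour at RT, then read; IC50 from 4-parameter POC fit.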

KRas G12S = target: T4, KRas G12S (Homo sapiens, UniProt P01116, G12S); experiment: as above; settings: 60-minute incubation at room temperature, 1% DMSO, pH 7.5
T4 construct: Biotinylated KRas (corresponding to amino acids 1-169, produced at Accelegan Inc.); biotin (biotinylated); purchased Accelegan Inc
T4 sequence (P01116 1-169 isoform P01116-2 G12S): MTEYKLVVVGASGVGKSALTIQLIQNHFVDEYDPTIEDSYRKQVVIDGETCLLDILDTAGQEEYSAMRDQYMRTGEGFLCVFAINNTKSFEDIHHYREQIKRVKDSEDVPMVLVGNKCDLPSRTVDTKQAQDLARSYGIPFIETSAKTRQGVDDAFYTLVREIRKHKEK
Method in brief: as §1

[2] = target: T5, KRas-mediated phosphorylation of ERK in A549 cells (Homo sapiens, UniProt P01116, G12S); experiment: Inhibition of KRas-mediated phosphorylation of ERK (HTRF), A549 cells; type: cell-based; settings: HTRF pERK, 3 h incubation
T5 construct: pERK HTRF read-out
T5 sequence (P01116 1-188 isoform P01116-2 G12S): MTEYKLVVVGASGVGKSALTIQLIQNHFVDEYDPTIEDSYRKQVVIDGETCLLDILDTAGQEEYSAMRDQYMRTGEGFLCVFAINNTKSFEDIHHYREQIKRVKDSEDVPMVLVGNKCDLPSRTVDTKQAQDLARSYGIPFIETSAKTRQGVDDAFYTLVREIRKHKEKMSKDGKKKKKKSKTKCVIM

[3] = target: T6, KRas-mediated phosphorylation of ERK in MKN1 cells (Homo sapiens, UniProt P01116); experiment: Inhibition of KRas-mediated phosphorylation of ERK (HTRF), MKN1 cells; type: cell-based; settings: MKN1 cells (KRas WT); HTRF pERK; 3 h incubation
T6 construct: pERK HTRF read-out
T6 sequence (P01116 1-188 isoform P01116-2): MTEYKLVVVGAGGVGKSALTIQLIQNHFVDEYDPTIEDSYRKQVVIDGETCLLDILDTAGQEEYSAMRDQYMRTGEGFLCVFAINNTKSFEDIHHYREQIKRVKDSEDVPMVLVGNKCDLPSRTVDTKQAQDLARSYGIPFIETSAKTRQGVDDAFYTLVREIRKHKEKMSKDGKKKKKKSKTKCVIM
Experimental: Inhibition of KRas Phosphorylation of ERK (HTRF) by Exemplary Compounds of Formula (Ia) or (Ib)
Cisbio HTRF Advanced pERK Assay Catalog #64AERPEH • Cells: MKN1, PSN1 • Procedure: • 1. Day 1: Seed 6,000 cells/well −25 μl/well in 384-well white solid bottom plate; RPM1_10% FBS. Incubate overnight at 37 °C/5% CO2. • 2.

T1 sequence (P01116 1-188 isoform P01116-2 G12C): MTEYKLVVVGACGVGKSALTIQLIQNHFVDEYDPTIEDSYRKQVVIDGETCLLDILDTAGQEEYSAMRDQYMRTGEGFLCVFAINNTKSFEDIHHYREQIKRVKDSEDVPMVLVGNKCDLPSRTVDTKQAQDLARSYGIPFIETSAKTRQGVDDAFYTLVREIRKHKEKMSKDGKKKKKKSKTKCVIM

SMILES	IC50 [1]	IC50 (KRas G12C)	IC50 (KRas WT)	IC50 (KRas G12S)	IC50 [2]	IC50 [3]
CCc1c(F)ccc2cc(O)cc(-c3ncc4c(N5CCC(C(=O)N6CCCCC6=O)CC5)nc(OC[C@@]56CCCN5C[C@H](F)C6)nc4c3F)c12 [Example 154, 1-(1-(7-(8-ethyl-7-fluoro-3-hydroxynaphthalen-1-yl)-8-fluoro-2-(((2R,7aS)-2-fluorotetrahydro-1H-pyrrolizin-7a(5H)-yl)methoxy)pyrido[4,3-d]pyrimidin-4-yl)piperidine-4-carbonyl)piperidin-2-one]	7230 nM	338 nM	131 nM	257 nM	6280 nM	2870 nM
CCc1c(F)ccc2cc(O)cc(-c3ncc4c(N5CCC(C(=O)n6ccc(C)n6)CC5)nc(OC[C@@]56CCCN5C[C@H](F)C6)nc4c3F)c12 [Example 1, (1-(7-(8-ethyl-7-fluoro-3-hydroxynaphthalen-1-yl)-8-fluoro-2-(((2R,7aS)-2-fluorotetrahydro-1H-pyrrolizin-7a(5H)-yl)methoxy)pyrido[4,3-d]pyrimidin-4-yl)piperidin-4-yl)(3-methyl-1H-pyrazol-1-yl)methanone]	3720 nM	77 nM	63 nM	36 nM	109 nM	4000 nM
CCc1c(F)ccc2cc(O)cc(-c3ncc4c(N5CC6CC(C(=O)N(C)C(C)=O)C6C5)nc(OC[C@@]56CCCN5C[C@H](F)C6)nc4c3F)c12 (stereo partly drawn) [Example 277, N-acetyl-3-(7-(8-ethyl-7-fluoro-3-hydroxynaphthalen-1-yl)-8-fluoro-2-(((2R,7aS)-2-fluorotetrahydro-1H-pyrrolizin-7a(5H)-yl)methoxy)pyrido[4,3-d]pyrimidin-4-yl)-N-methyl-3-azabicyclo[3.2.0]heptane-6-carboxamide]	6510 nM	864 nM	357 nM	539 nM	549 nM	2360 nM
CCc1c(F)ccc2cc(O)cc(N3CCc4c(nc(OC[C@@]56CCCN5C[C@H](F)C6)nc4NCCC(=O)n4ccc(C)n4)C3)c12 [Example 195, 3-((7-(8-ethyl-7-fluoro-3-hydroxynaphthalen-1-yl)-2-(((2R,7aS)-2-fluorotetrahydro-1H-pyrrolizin-7a(5H)-yl)methoxy)-5,6,7,8-tetrahydropyrido[3,4-d]pyrimidin-4-yl)amino)-1-(3-methyl-1H-pyrazol-1-yl) propan-1-one]	1170 nM	13 nM	43 nM	6 nM	84 nM	936 nM
CCc1c(F)ccc2cc(O)cc(-c3ncc4c(N(C)C(C)CCC(=O)N(C)C(C)=O)nc(OC[C@@]56CCCN5C[C@H](F)C6)nc4c3F)c12 (stereo partly drawn) [Example 282, N-acetyl-4-((7-(8-ethyl-7-fluoro-3-hydroxynaphthalen-1-yl)-8-fluoro-2-(((2R,7aS)-2-fluorotetrahydro-1H-pyrrolizin-7a(5H)-yl)methoxy)pyrido[4,3-d]pyrimidin-4-yl)(methyl)amino)-N-methylpentanamide]	1290 nM	82 nM	184 nM	44 nM	185 nM	870 nM
Cc1ccn(C(=O)C2CCCN(c3nc(OC[C@@]45CCCN4C[C@H](F)C5)nc4c(F)c(-c5nc(N)ccc5C)c(Cl)cc34)CC2)n1 (stereo partly drawn) [Example 222, (1-(7-(6-amino-3-methylpyridin-2-yl)-6-chloro-8-fluoro-2-(((2R,7aS)-2-fluorotetrahydro-1H-pyrrolizin-7a(5H)-yl)methoxy)quinazolin-4-yl)azepan-4-yl)(3-methyl-1H-pyrazol-1-yl)methanone]	> 10000 nM	18300 nM	29600 nM	3410 nM	1970 nM	8260 nM
COC(=O)C1CCN(c2nc(OC[C@@]34CCCN3C[C@H](F)C4)nc3c(F)c(-c4ccc(F)c5sc(N)c(C#N)c45)c(Cl)cc23)CC1 [Example 286, Methyl 1-(7-(2-amino-3-cyano-7-fluorobenzo[b]thiophen-4-yl)-6-chloro-8-fluoro-2-(((2R,7aS)-2-fluorotetrahydro-1H-pyrrolizin-7a(5H)-yl)methoxy)quinazolin-4-yl)piperidine-4-carboxylate]	106 nM	11 nM	6 nM	15 nM	237 nM	24 nM
CN(CCN(C)c1nc(OC[C@@]23CCCN2C[C@H](F)C3)nc2c(F)c(-c3ccc(F)c4sc(N)c(C#N)c34)c(Cl)cc12)C(=O)n1ccnn1 (single isomer, unassigned) [Example 203]	1 nM	< 2 nM	4 nM	3 nM	195 nM	101 nM
COc1cccc(OC(=O)C2CCN(c3nc(OC[C@@]45CCCN4C[C@H](F)C5)nc4c(F)c(-c5ccc(F)c6sc(N)c(C#N)c56)c(Cl)cc34)CC2)c1 [Example 244, 3-methoxyphenyl 1-(7-(2-amino-3-cyano-7-fluorobenzo[b]thiophen-4-yl)-6-chloro-8-fluoro-2-(((2R,7aS)-2-fluorotetrahydro-1H-pyrrolizin-7a(5H)-yl)methoxy)quinazolin-4-yl)piperidine-4-carboxylate]	12 nM	9 nM	289 nM	23 nM	55 nM	279 nM
N#Cc1c(N)sc2c(F)ccc(-c3c(Cl)cc4c(N5CCC(C(=O)N6CCOCC6)CC5)nc(OC[C@@]56CCCN5C[C@H](F)C6)nc4c3F)c12 [Example 241, 2-amino-4-(6-chloro-8-fluoro-2-(((2R,7aS)-2-fluorotetrahydro-1H-pyrrolizin-7a(5H)-yl)methoxy)-4-(4-(morpholine-4-carbonyl)piperidin-1-yl)quinazolin-7-yl)-7-fluorobenzo [b]thiophene-3-carbonitrile]	163 nM	11 nM	5 nM	11 nM	367 nM	27 nM
Cc1ccn(C(=O)C2CCCN(c3nc(OC[C@@]45CCCN4C[C@H](F)C5)nc4c(F)c(-c5csc6ccc(N)nc56)c(Cl)cc34)CC2)n1 (stereo partly drawn) [Example 215, (1-(7-(5-aminothieno[3,2-b]pyridin-3-yl)-6-chloro-8-fluoro-2-(((2R,7aS)-2-fluorotetrahydro-1H-pyrrolizin-7a(5H)-yl)methoxy)quinazolin-4-yl)azepan-4-yl)(3-methyl-1H-pyrazol-1-yl)methanone]	> 10000 nM	2400 nM	11400 nM	169 nM	242 nM	3920 nM
CN(CCCC(=O)N(C)c1ccncn1)c1nc(OC[C@@]23CCCN2C[C@H](F)C3)nc2c(F)c(-c3ccc(F)c4sc(N)c(C#N)c34)c(Cl)cc12 [Example 268, 4-((7-(2-amino-3-cyano-7-fluorobenzo[b]thiophen-4-yl)-6-chloro-8-fluoro-2-(((2R,7aS)-2-fluorotetrahydro-1H-pyrrolizin-7a(5H)-yl)methoxy)quinazolin-4-yl)(methyl)amino)-N-methyl-N-(pyrimidin-4-yl) butanamide]	75 nM	5 nM	11 nM	9 nM	266 nM	205 nM
CCc1c(F)ccc2cc(O)cc(-c3ncc4c(N5CCCCC(C(=O)n6ccc(C)n6)CC5)nc(OC[C@@]56CCCN5C[C@H](F)C6)nc4c3F)c12 (stereo partly drawn) [Example 53, (1-(7-(8-ethyl-7-fluoro-3-hydroxynaphthalen-1-yl)-8-fluoro-2-(((2R,7aS)-2-fluorotetrahydro-1H-pyrrolizin-7a(5H)-yl)methoxy)pyrido[4,3-d]pyrimidin-4-yl)azocan-4-yl)(3-methyl-1H-pyrazol-1-yl)methanone]	88 nM	7 nM	77 nM	2 nM	16 nM	305 nM
CCc1c(F)ccc2cc(O)cc(-c3ncc4c(N(CC)CCCC(=O)n5ccc(C)n5)nc(OC[C@@]56CCCN5C[C@H](F)C6)nc4c3F)c12 [Example 164, 4-(ethyl(7-(8-ethyl-7-fluoro-3-hydroxynaphthalen-1-yl)-8-fluoro-2-(((2R,7aS)-2-fluorotetrahydro-1H-pyrrolizin-7a(5H)-yl)methoxy)pyrido[4,3-d]pyrimidin-4-yl)amino)-1-(3-methyl-1H-pyrazol-1-yl) butan-1-one]	999 nM	5 nM	103 nM	8 nM	50 nM	2210 nM
CCc1c(F)ccc2cc(O)cc(-c3ncc4c(N5CCC(C(=O)Oc6ccccc6)CC5)nc(OC[C@@]56CCCN5C[C@H](F)C6)nc4c3F)c12 [Example 39, phenyl 1-(7-(8-ethyl-7-fluoro-3-hydroxynaphthalen-1-yl)-8-fluoro-2-(((2R,7aS)-2-fluorotetrahydro-1H-pyrrolizin-7a(5H)-yl)methoxy)pyrido[4,3-d]pyrimidin-4-yl)piperidine-4-carboxylate]	808 nM	13 nM	195 nM	1590 nM	6550 nM	1360 nM
